This note sets out measurements from publication PMC10254657, “Efficient pH-Responsive Nano-Drug Delivery System Based on Dynamic Boronic Acid/Ester Transformation” (Molecules, 2023).

What is called AUC(0-inf) is the area under the concentration-time curve extrapolated to infinity. As usually defined, the AUC(0-t) is the area under the concentration-time curve up to a stated or last time point. A lower AUC(0-t) goes with less exposure. A word on the Cmax: it is the peak of the concentration-time curve.

Series [1] has as its system DU145 tumor xenografts. Put plainly: TUNEL assay of the tumors. The class given is in vivo, BALB/c nude mice. The settings on record: compared with PBS; tumors excised at 15 d. From the text:
The tumor tissue and other organs from the sacrificed mice were excised at 15 d of the treatments with various drugs. After being fixed in n 4% formaldehyde, dehydrated with ethanol, and embedded in paraffin, the tumor tissue and organs were further sectioned into 5 μm slices for hematoxylin and eosin (H&E) staining and the terminal deoxynucleotidyl transferase-mediated dUTP nick-end labeling (TUNEL) staining assay. The H&E-stained tissues and TUNEL-stained tissues were imaged by fluorescence microscopy (NIKON ECLIPSE C1, Tokyo, Japan).

Series [2] concerns DU145 cells. Put plainly: In vitro cytotoxicity by MTT assay. The settings on record: Homo sapiens, DU-145, 24 h (Figure 5 legend) / 48 h (method), read-out: half-maximal inhibitory concentrations (IC50). The class given is cell-based. The protocol:
Human prostate cancer cells (DU145) were cultivated in DMEM supplemented with fetal bovine serum (FBS, 10%), streptomycin (100 μg/mL), and penicillin (100 units/mL). The cells were incubated in a humid atmosphere with 5% CO2 at 37 °C.
The in vitro cytotoxicities of PTX-loaded NPs were measured by MTT assays. Cells were seeded in 96-well plates (5000–8000 cells per well) and incubated at 37 °C. After 24 h, the medium was replaced with 180 μL of fresh medium, and the cells were treated with serial dilutions of PTX/PBA NPs, PTX/mPEG-PAL NPs, blank PBA NPs, and blank mPEG-PAL NPs (20 μL) for 48 h at 37 °C. At the end of the incubation, to each well was added […] of MTT solution (5 mg/mL in PBS). After 4 h, the MTT solution was removed from the wells, followed by the addition of supplementary DMSO (100 μL) to dissolve the purple MTT formazan crystals. The absorbance of each well was determined at 490 nm on a microplate reader (Flexstation 3, Molecular Devices LLC, Sunnyvale, CA, USA).

The nature of series [3]: Body weight of tumor-bearing mice during treatment. It is filed as in vivo, BALB/c nude mice. The settings on record: 7.5 mg/kg i.v. on days 0, 3 and 6.
Protocol: (§1) BALB/c nude mice (4–5 weeks old) were used for the evaluation of the antitumor activities of the nanotherapies. The human prostate cancer cell line DU145 was grown to 80% confluence in 90 mm tissue culture dishes. After cell harvesting, the cells were resuspended in PBS at 4 °C to reach a final concentration of 1.5 × 10^7 cells/mL. The right flanks of the BALB/c nude mice were subcutaneously injected with 200 μL of a cell suspension containing 3 × 10^6 cells. At 4 days after implantation, the tumors reached approximately 150 mm^3 in volume, and then the mice were randomly divided into four groups (n = 6 mice per group). Mice bearing DU145 tumor xenografts were injected intravenously with PBS, Taxol, PTX/PBA NPs, and PTX/mPEG-PAL NPs at 7.5 mg/kg three times on days 0, 3, and 6. Tumor volumes and body weights were monitored and recorded once every three days. The lengths (L) and widths (W) of the tumors were measured with calipers, and the tumor volume was calculated by the following formula: V = (L × W^2)/2, where W is shorter than L.
Series [4] deals with human DU145 tumor model. The note with it: 7.5 mg/kg i.v. on days 0, 3 and 6.
Protocol: as §1
A short description of series [5]: In vivo pharmacokinetics after intravenous administration. The note with it: ICR mice. The protocol: Pharmacokinetics was evaluated in ICR mice (about 20 g). […] A total of 0.1 mL of fresh blood was collected through orbital at appropriate intervals, put into a centrifuge tube pretreated with heparin sodium, and centrifugated (5000 rpm, 10 min). A total of 100 µL acetonitrile was added to 50 µL of supernatant collected to extract PTX and precipitate protein in serum, and the mixture was centrifugated for another 10 min (1200 rpm). The amounts of PTX in the collected supernatant were determined by HPLC (acetonitrile:water = 50:50 (v:v); flow rate: 1.0 mL/min; wavelength: 227 nm).

For `CC(=O)O[C@H]1C(=O)[C@@]2(C)[C@H]([C@H](OC(=O)c3ccccc3)[C@]3(O)C[C@H](OC(=O)[C@H](O)[C@@H](NC(=O)c4ccccc4)c4ccccc4)C(C)=C1C3(C)C)[C@]1(OC(C)=O)CO[C@@H]1C[C@@H]2O` [Taxol, Paclitaxel], the “cell apoptosis rate in tumors (TUNEL)” value in series [1] is given as “dramatic increase”. Further, the IC50 in series [2] was found to be 3.04 nM. Besides, the “body weight of mice” value in series [3] was “remained almost unchanged in the first 9 days and then showed a slow uptrend”. The “therapeutic efficacy (tumor photograph and weight at the end of treatment)” value in series [4] (end of treatment) is given as “better therapeutic efficacy than PBS”. Also, the “tumor growth (tumor volume)” value in series [4] (first 6 days) is “completely inhibited”. This compound gave a t1/2α in series [5] of 3.24 min. In addition, in series [5] (mouse, plasma), the AUC(0-inf) was 85.4 ng·h/mL, the AUC(0-t) amounted to 67.5 ng·h/mL and the Cmax came out at 94.6 ng/mL. Moreover, the half-life in series [5] (mouse, plasma, read-out: t1/2β (converted)) was 26 min.
